What was measured:
[1] = system: Methicillin Resistant Staphylococcus aureus (MRSA, USA 400); experiment: Colony forming assay, 24 h plate assay, MRSA USA 400; type: cell-based
Description: Proliferating cultures of Methicillin Resistant Staphylococcus aureus (MRSA, USA 400) were used in a colony forming assay. Frozen stock cultures of MRSA USA 400 were thawed and grown overnight in tryptic soy broth (TSB) with shaking at 37° C. The overnight culture (0.5-1.0 mL) was added to 100 mL TSB and grown at 37° C. with shaking and monitored for an optical density of 0.55-0.60 in order to obtain a final inoculum suspension of approximately 10^8 CFU/mL.
BM3103 was suspended into a 70% v/v alcohol gel formulation to acquire the desired % w/v tested within the example. Each concentration was vortexed thoroughly until dissolved. Initial tested concentrations of BM3103 were 1, 0.5, and 0.1% w/v. These concentrations and the alcohol gel vehicle were mixed with equal parts of the 10^8 CFU/mL inoculum to obtain a final concentration of 0.5, 0.25, and 0.05% (22 mM, 11 mM, and 2 mM) BM3103. Tobramycin (600 μg/mL) served as the positive control. Vehicle and BM3103 formulations contained matching final concentration of 35% v/v alcohol.
BM3103 was dissolved into Transcutol (diethylene glycol monoethyl ether) at 2.5% w/v and vortexed until dissolved. This concentration was then serial diluted to achieve the remaining concentrations tested. Before plating, 100 μL of the final inoculum (10^8 CFU/mL) was mixed with 20 μL TSB broth and 80 μL of BM3103 doses or vehicle. Tobramycin, 600 μg/mL, served as the positive control. The final plating concentrations for BM3103 were 1, 0.5, 0.25, and 0.1% w/v (44 mM, 22 mM, 11 mM, 4 mM) BM3103. Vehicle and BM3103 formulations contained matching final concentration of 40% v/v Transcutol.
The above listed formulations combined with the MRSA inoculum were plated onto TSB agar plates. The plates were grown at 37° C. for 24 h, imaged, and the bacteria colonies were counted. The experiment was done in triplicate at each concentration level described above. Colony counts for each treatment were tabulated and the Log of the colony forming units/mL (Log CFU/mL) were determined. The mean and the standard error of the mean were calculated for each treatment.

MRSA USA 400 biofilms = experiment: Cell death in an existing biofilm, DAPI/propidium iodide staining; type: cell-based, Staphylococcus aureus; conditions: 24 h treatment; 0.008 mM to 0.125 mM; FIG. 15
Description: For the treatment of MRSA USA 400 biofilms, the same 96 well plate assay procedure was used as described in the biofilm inhibition section above. However, the MRSA USA 400 inoculum (10^8 CFU/mL) grew overnight at 37° C. in the absence of BM3103 and without shaking. After 24 h of biofilm formation, BM3103 was serially diluted across a 96 well plate from of 1 mM to 0.002 mM. The plate was incubated again overnight at 37° C. without shaking.
In order to confirm that treatment with BM3103 induced MRSA USA 400 bacterial cell death in the existing biofilm, both untreated cells and cells treated with BM3103 were stained with a combination of DAPI (nuclear stain) and Propidium iodide (PI, Live dead stain) as described in Example 15. MRSA USA 400 were plated in a well plate at 10^8 CFU/mL in combination with BM3103 treatment or no treatment. Plates were placed at 37° C. for 24 h. Bacteria cells were co-stained with DAPI and PI at 50 μg/mL and 500 μg/mL, respectively, for 15 min at room temperature. Wells were washed with warmed phosphate buffered saline (PBS) and maintained in PBS throughout the imaging acquisition process. Images were captured using the same exposure limits for each filter. […] Concentrations above 0.125 mM gave a similar result.

Compound: COc1ccc(C#Cc2ccc(O)cc2)cc1 [BM3103, 4-hydroxy-4′-methoxytolan]
- Reduction of MRSA USA 400 counts ([1]; 0.05% w/v, 2 mM, alcohol gel formulation, compared to the vehicle control, FIG. 9): 4 fold
- Reduction of MRSA USA 400 counts ([1]; 0.1% BM3103, Transcutol formulation, FIG. 10): > 5 fold
- Bacterial count of MRSA USA 400 ([1]; 0.25% BM3103, alcohol gel formulation, FIG. 9): no bacterial count
- Bacterial count of MRSA USA 400 ([1]; 0.5% BM3103, alcohol gel formulation, FIG. 9): no bacterial count
- Bacterial count of MRSA USA 400 ([1]; remaining concentrations tested (1, 0.5, 0.25% w/v), Transcutol formulation, FIG. 10): no bacterial count
- PI staining (cell death) in existing biofilm (MRSA USA 400 biofilms): dose dependent increase in PI staining
